Melting point data for 22 compounds are collected here from patent US20030073850A1, “4-Imidazole derivatives of benzyl and restricted benzyl sulfonamides, sulfamides, ureas, carbamates, and amides and their use” (priority 1998, published 2003).

Where a name gives a salt, the structure may show the parent alone.

What is called melting point is the temperature, or range, at which the solid turns liquid. Compound `Cc1nc(C2CCCc3c2ccc(O)c3NS(C)(=O)=O)c[nH]1.Cl` (stereo not shown) [Example 3, N-[2-hydroxy-5-(2-methyl-1H-imidazol-4-yl)-5,6,7,8-tetrahydro-1-naphthalenyl]methanesulfonamide, hydrochloride] returned a melting point of 233 to 235 °C.

As to `CC(c1cccc(NS(C)(=O)=O)c1)c1c[nH]cn1.O=C(O)/C=C\C(=O)O` (stereo not shown), the melting point was in the range of 135 to 136 °C.

In turn, `CS(=O)(=O)Nc1cccc2c1CCC=C2c1c[nH]cn1.O=C(O)/C=C\C(=O)O` [Example 47, N-[5-(1H-imidazol-4-yl)-7,8-dihydro-1-naphthalenyl]methanesulfonamide, Maleate] registered a melting point of 161 to 165 °C.

The compound `CCS(=O)(=O)Nc1ccc(C)c(Cc2c[nH]cn2)c1` registered a melting point of 194 to 196 °C.

`C=C(c1cccc(NS(C)(=O)=O)c1)c1c[nH]cn1` (as salt: maleic acid salt) [Example 92, N-{3-[1-(1H-imidazol-4-yl)vinyl]phenyl}methanesulfonamide] showed a melting point of 167 to 170 °C.

`O=C(O)/C=C\C(=O)O.O=S(=O)(CC(F)(F)F)Nc1cccc(Cc2c[nH]cn2)c1` had a melting point of 161 to 162 °C.

Compound `CS(=O)(=O)Nc1c(O)ccc2c1CCCC2c1c[nH]cn1.Cl` (stereo not shown) [Example 2, N-[2-hydroxy-5-(1H-imidazol-4-yl)-5,6,7,8-tetrahydro-1-naphthalenyl]methanesulfonamide, Hydrochloride] displayed a melting point of 135 to 137 °C.

Consider `CCS(=O)(=O)Nc1cccc2c1CCCC2c1c[nH]cn1.O=C(O)/C=C\C(=O)O` (stereo not shown) [Example 12, N-[5-(1H-imidazol-4-yl)-5,6,7,8-tetrahydro-1-naphthalenyl]ethanesulfonamide Maleate], for which the melting point lay within 129 to 132 °C.

`CCS(=O)(=O)Nc1cccc(Cc2c[nH]cn2)c1OC`: the melting point lay in the range of 185 to 186 °C.

In turn, `CCS(=O)(=O)Nc1cccc(/C(=C/OC)c2c[nH]cn2)c1.O=C(O)/C=C\C(=O)O` [Example 46, N-{3-[(Z)-1-(1H-imidazol-4-yl)-2-methoxyethenyl]phenyl}ethanesulfonamide, Maleate] displayed a melting point of 146 to 148 °C.

Compound `CCS(=O)(=O)Nc1cccc(Cc2c[nH]cn2)c1O.O=C(O)/C=C\C(=O)O` came in with a melting point of 155 to 157 °C.

`COc1ccc2c(c1NS(C)(=O)=O)CCCC2c1c[nH]cn1.Cl` (stereo not shown) [Example 1, N-[5-(1H-imidazol-4-yl)-2-methoxy-5,6,7,8-tetrahydro-1-naphthalenyl]methanesulfonamide hydrochloride]: the melting point lay in the range of 209 to 211 °C.

As for `CCS(=O)(=O)Nc1cc(Br)cc(Cc2c[nH]cn2)c1`, the melting point was 194 to 196 °C.

`CS(=O)(=O)Nc1cccc2c1CCC[C@H]2c1c[nH]cn1` [Example 9, (+)-N-[(5R)-5-(1H-imidazol-4-yl)-5,6,7,8-tetrahydro-1-naphthalenyl]methanesulfonamide] returned a melting point of 118 to 123 °C.

With `Cl.Cn1cncc1C1CCCc2c1ccc(O)c2NS(C)(=O)=O` (stereo not shown) [Example 4, N-[2-hydroxy-5-(1-methyl-1H-imidazol-5-yl)-5,6,7,8-tetrahydro-1-naphthalenyl]methanesulfonamide, Hydrochloride], the melting point amounted to 260 °C.

As for `CCS(=O)(=O)Nc1cc(C)cc(Cc2c[nH]cn2)c1C`, the melting point lay within 167 to 169 °C.

Compound `CCS(=O)(=O)Nc1cc(Cc2c[nH]cn2)ccc1Cl` had a melting point of 159 to 160 °C.

Compound `Cc1c(Cc2c[nH]cn2)cccc1NS(C)(=O)=O.O=C(O)/C=C\C(=O)O` registered a melting point of 143 to 144 °C.

`CS(=O)(=O)Nc1cc(Cc2c[nH]cn2)ccc1O.Cl`: the melting point was in the range of 167 to 169 °C.

`CCS(=O)(=O)Nc1cc(Cc2c[nH]cn2)ccc1C` registered a melting point of 140 to 152 °C.

Take `CCS(=O)(=O)Nc1cc(Br)cc(Cc2c[nH]cn2)c1C`: the melting point is 202 to 204 °C.

For the compound `Cc1cc(Cc2c[nH]cn2)c(C)c(NS(C)(=O)=O)c1`, the melting point lay within 197 to 199 °C.
